Values joined by “and” are separate entries in the source; they are usually repeats but may differ in a detail not shown here. Equal entries are not always repeated. Where two headings read alike, the source gives them in different places.
Legend:
[1] = system: specific antibody titres against Haemophilus influenzae, Tetanus and Pneumococcal capsular polysaccharide; design: species or system human; conditions: in vivo
[2] = system: circulating total IgG, IgA, IgM and pneumococcus IgG; assay: Second observational study (interim analysis): circulating immunoglobulins; type: in vivo, human; conditions: interim data
[3] = system: circulating B cell subsets; assay: Second observational study (interim analysis): peripheral blood B cell subsets by FACS; type: in vivo, human; conditions: interim data
[4] = system: bone marrow B cell subsets; assay: Wild type mouse study: bone marrow B cell immunophenotyping by flow cytometry; type: in vivo, C57BL/6 mice
[5] = system: splenic B cell and T cell populations; assay: Wild type mouse study: spleen immunophenotyping by flow cytometry; type: in vivo, C57BL/6 mice
[6] = system: circulating immunoglobulins; assay: Wild type mouse study: circulating immunoglobulin profile by ELISA; type: in vivo, C57BL/6 mice; conditions: FIG. 24
[7] = system: collagen-induced arthritis (CIA); assay: Mouse collagen-induced arthritis (CIA) model: onset, incidence, clinical score, paw swelling; type: in vivo, DBA/1 mice
Description: Adult (age 13-15 weeks) DBA/1 male mice were purchased from Envigo (Horst, Netherlands). Mice were housed at a 21° C.±2° C. in individually ventilated cages with free access to food and water and a 12-h light/dark cycle (7 am/7 pm). Mice were acclimatised for 1 week on arrival prior to initiating experiments.
(§1) All experiments were approved by the Clinical Medicine Animal Welfare and Ethical Review Body (AWERB) and by the UK Home Office.
DBA/1 mice were immunised with bovine type II collagen in CFA and monitored daily for onset of arthritis. […] Controls received vehicle (saline) alone. Treatment of mice commenced in one experiment on day 1 after immunisation and in a second experiment on day 15 after immunisation. Clinical scores and paw-swelling were monitored for 10 days following onset of arthritis. A clinical scoring system was used as follows. Arthritis severity was scored by an experienced, non-blinded investigator as follows: 0=normal, 1=slight swelling and/or erythema, 2=pronounced swelling, 3=ankylosis. All four limbs were scored, giving a maximum possible score of 12 per animal.
(§2) Data were analyzed by one-way ANOVA with Tukey's or Dunnett's multiple comparison test or two-way ANOVA with Tukey's multiple comparison test as appropriate. All calculations were made using GraphPad Prism software. A P value less than 0.05 was considered significant.

[8] = system: B220+ B cells, plasma cells, germinal centre B cells; assay: CIA model: B cell subsets in spleen and lymph nodes by FACS; type: in vivo, DBA/1 mice
Description: as §1
(§3) At the end of the experimental period, mice were humanely euthanised and bled by cardiac puncture to obtain blood samples for serum separation, storage at −80° C. and subsequent measurement of specific anti-collagen immunoglobulin (IgG1 and IgG2a isotypes) by ELISA. In parallel, spleen and inguinal lymph nodes were harvested for evaluation of cellular composition across these compartments using multi-laser flow cytometric detection and analysis. Numbers of B cell subsets in spleen and lymph nodes were determined by FACS.
as §2

[9] = system: anti-collagen IgG1 and IgG2a; assay: CIA model: serum anti-collagen immunoglobulin by ELISA; type: in vivo, DBA/1 mice; conditions: FIG. 33
Description: as §1, §3, §2

[10] = system: T follicular helper cells (CD4+ PD1+ CXCR5+); assay: CIA model: T follicular helper cells in spleen and lymph node by FACS; type: in vivo, DBA/1 mice
Description: as §1, §3, §2

[11] = system: B cell subsets (class switched memory B cells, plasmablasts); conditions: for CSMB after stopping clozapine: one patient, 24 months after clozapine cessation (from 1.58%)
[12] = system: serum/plasma IgG, IgA, IgM; conditions: cited from earlier work
[13] = outpatients on clozapine at least five years (Lozano et al., 2016)
[14] = six weeks clozapine treatment (Hinze-Selch et al., 1998)

CN1CCN(C2=Nc3cc(Cl)ccc3Nc3ccccc32)CC1 [Clozapine, clozapine]
% of patients with IgG-Haemophilus B <1.0 mcg/ml (below protective level) [1]: 51% and 51.2% and 51.1% and 49.4% and 50.9%
% of patients with IgG-Pneumococcus <35 mg/L [1]: 39.0% and 38.3% and 37.9% and 45.6%
% of patients with IgG-Pneumococcus <50 mg/L (below protective level) [1]: 52.1% and 50.6% and 54.4%
% of patients with IgG-Tetanus <0.1 IU/ml (below protective level) [1]: 10.6% and 11.5% and 12.3%
IgM-Pneumococcus [1]: 58.5 U/L and 59.8 U/L and 60.4 U/L and 61.6 U/L
Pneumococcal IgA level [1]: 31 U/ml
Pneumococcal IgM level [1]: 58.5 U/ml
pneumococcal IgA level [1]: 31.0 U/L
levels of circulating total IgG, IgA and IgM vs clozapine naive control ([2]; FIG. 6A-C): Significantly reduced levels
IgG antibodies against pneumococcus vs control ([2]; FIG. 7): trend to lower
overall CD19+ B cell numbers vs control ([3]; FIG. 8A-B): not significantly different
naive (CD19+CD27-) B cells as a proportion of total CD19+ B cells ([3]; FIG. 9A-C): Small increase
overall memory B cell pool ([3]; FIG. 10A-C): without perturbation
IgM hi IgD lo memory B cell subpopulation ([3]; FIG. 12A-C): without perturbation
circulating levels of marginal zone B cells ([3]; FIG. 14A-C): No significant difference
class-switched memory B cells (CD27+ IgM- IgD- as % B) ([3]; P=0.06 vs control, FIG. 11A-C): Strong trends to a specific reduction
levels of plasmablasts ([3]; P=0.07 vs control clozapine naive, FIG. 15A-C): Strong trends to reduction
pro-B cell fraction in bone marrow ([4]; 10 mg/kg IP, 21 days, FIG. 18): without any change
proportion of pre-pro B cells in bone marrow ([4]; 10 mg/kg IP, 21 days, FIG. 18): significant increase
reduction in the percentage of long-lived plasma cells in the bone marrow compared to control ([4]; 5 and 10 mg/kg IP, 21 days, significant, FIG. 20): ~30%
percentage of immature B cells in bone marrow ([4]; IP 21 days, FIG. 19): reduction
overall B cells in the bone marrow ([4]; any dose (2.5, 5, 10 mg/kg IP, 21 days), FIG. 18): No overall reduction
pre-B cells in bone marrow ([4]; dose-dependent, significant vs control from 2.5 mg/kg, IP 21 days, FIG. 19): reduction
percentage of proliferating pre-B cells in bone marrow ([4]; reaching significance for the 5 mg/kg dose, FIG. 19): diminished
percentage of splenic B cells (B220+TCR-beta-) of total live splenocytes ([5]; 5 mg/kg and 10 mg/kg IP, 21 days, FIG. 21): significantly lower percentage
other splenic cell populations (B220-TCR-beta-) ([5]; FIG. 21): No effect
percentage of splenic T cells ([5]; FIG. 21): reciprocal increase
splenic follicular B cell subset ([5]; FIG. 22): no specific reductions
splenic marginal zone B cell subset ([5]; FIG. 22): no specific reductions
proportion of T2 B cells in the spleen ([5]; across all doses, FIG. 22): small increase
activated T cells (B220+TCR-beta+) in spleen vs control ([5]; clozapine 2.5-10 mg/kg, haloperidol 1 mg/kg, IP 21 days, FIG. 21): reduced in dose-dependent fashion
transitional stage 1 (T1) B cells in the spleen ([5]; including at the 2.5 mg/kg dose, FIG. 22): mildly reduced proportion
germinal centre cells in the spleen vs control or haloperidol ([5]; steady state, FIG. 22): no differences observed
other circulating immunoglobulin isotype classes [6]: No other isotype classes were affected
circulating IgA levels compared to control ([6]; clozapine 5 and 10 mg/kg, haloperidol 1 mg/kg, IP 21 days): reduction
swelling of the first affected paw ([7]; 10 mg/kg from day 1, FIG. 27): reduced swelling of the first affected paw
onset of arthritis post-immunisation ([7]; 5 or 10 mg/kg IP daily from day 1 or day 15, FIG. 25, 26): significantly effective
incidence of CIA ([7]; FIG. 26): reduces the incidence
onset of arthritis, treatment from day 1 ([7]; both doses (5, 10 mg/kg) from day 1, FIG. 25, 26): extremely effective
overall clinical score ([7]; both doses, administered from day 1, FIG. 27): reduced overall clinical score
total number of affected paws compared to vehicle control ([7]; significant with dosing at D1, FIG. 28): reduced the total number of affected paws
proportion of B220+ B cells in spleen ([8]; 10 mg/kg from day 1, FIG. 29): significantly reduced
proportion of plasma cells in spleen ([8]; 10 mg/kg given on day 1, FIG. 30): significant reduction
plasma cell numbers in lymph node ([8]; FIG. 30): no significant effect
level of GL7 expression on follicular B cells in lymph node ([8]; all clozapine treatment groups vs vehicle, FIG. 32): significantly decreased
percentage of B220+ B cells in lymph nodes ([8]; all doses and time points (5 or 10 mg/kg from day 1 or day 15), FIG. 29): significantly lower percentage
lymph node follicular B cells (B220+IgD-Fas+GL7hi) ([8]; all doses/both time points, FIG. 31): Strikingly significant reductions
serum anti-type II collagen IgG1 reduction ([9]; 10 mg/kg from day 15): reaching statistical significance
serum anti-type II collagen IgG2a ([9]; 5 or 10 mg/kg from day 1 or day 15, single time point): no significant impact
serum anti-type II collagen IgG1 ([9]; across all doses tested): nominal reductions
proportions of CD4+PD1+CXCR5+ T follicular helper cells in lymph node or spleen ([10]; 5 or 10 mg/kg from day 1 or day 15, FIG. 34): did not significantly affect
expression of PD-1 (MFI) in lymph node T follicular helper cells ([10]; all doses and time points, FIG. 35): Reduced expression
CXCR5 expression (MFI) on T follicular helper cells ([10]; dosed from day 1, lymph node and spleen, FIG. 36): significant reductions
expression of CCR7 on germinal centre resident T follicular helper cells ([10]; lymph node and spleen, FIG. 37): reduction in expression
admitted to hospital with infection (clozapine group (vs 0.06 controls)): 0.12 per patient year
Admission frequency in 12-month period, infection-related: admissions (clozapine-treated patients): 15
Admission frequency in 12-month period, infection-related: patients (clozapine-treated patients): 10 patients
marginal zone B cell numbers vs healthy control ([11]; FIG. 3B): no significant difference
total B cell numbers vs CVID and healthy controls ([11]; FIG. 3B): similar
CSMB (6.5-29.1%), individual referred patients ([11]; class switched memory B cells as % of CD19+ cells, one line per patient, listed as clozapine): 1.58%
overall lymphopenia / B cell lymphopenia ([11]; human, in vivo): no severe overall lymphopenia or B cell lymphopenia
CSMB after stopping clozapine [11]: CSMB rose to 2.77%
CSMB after stopping clozapine ([11]; listed as clozapine): 2.77%
mean percentage of CSMB, referred patients ([11]; reference range 6.5-29.1%, p<0.0001 vs healthy controls, FIG. 3A): 1.87%
IgA, IgG, absolute neutrophil count and white blood cell count vs control group [12, 13]: no differences were found
mean plasma levels of IgM vs control group [12, 13]: overall decrease
IgA or IgM concentrations [12, 14]: no significant effect
serum concentrations of IgG [12, 14]: significant increases

Reference: patent publication US20210137941A1 (ZARODEX THERAPEUTICS LIMITED, priority 2018, published 2021)
